Holding throughout (assay type): cell-based
Assay [1] addresses T1, human 5-HT3A receptor (wild type) (Homo sapiens, UniProt P46098).
T1 construct: expressed in transfected cells; host or cells: Xenopus oocytes injected with in vitro transcribed mRNA
T1 sequence (P46098 24-478): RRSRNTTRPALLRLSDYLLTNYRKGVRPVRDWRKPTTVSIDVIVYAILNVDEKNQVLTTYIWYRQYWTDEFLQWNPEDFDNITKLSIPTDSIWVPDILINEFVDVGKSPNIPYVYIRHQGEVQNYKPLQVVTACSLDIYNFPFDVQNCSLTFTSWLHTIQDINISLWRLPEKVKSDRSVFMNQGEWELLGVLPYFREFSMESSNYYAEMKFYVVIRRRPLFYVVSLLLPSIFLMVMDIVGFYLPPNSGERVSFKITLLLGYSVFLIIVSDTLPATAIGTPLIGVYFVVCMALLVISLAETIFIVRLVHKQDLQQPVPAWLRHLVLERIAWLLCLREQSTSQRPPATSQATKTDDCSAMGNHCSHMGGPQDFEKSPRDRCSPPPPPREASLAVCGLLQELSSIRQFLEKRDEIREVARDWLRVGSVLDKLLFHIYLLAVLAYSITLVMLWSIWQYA
Nature of the assay: Two-electrode voltage clamp, inhibition of serotonin-induced inward current (I5-HT) in Xenopus oocytes expressing wild-type receptor. (In two-electrode clamp one electrode senses voltage and the other passes current.)
Procedure: Xenopus oocytes were used in this study as cells for expression of human 5-HT3A receptor. All female frogs used in this experiment were obtained from the Korean Xenopus Resource Center for Research (KXRCR000001). […] Xenopus oocytes were extracted during ice incubation state and isolated as single oocytes using collagenase II (2 mg/mL) in OR2 buffer (82.5 mM NaCl, 2 mM KCl, 1 mM MgCl2, 5 mM HEPES, pH 7.4). Isolated oocytes were incubated with ND96 incubation buffer (96 mM NaCl, 2 mM KCl, 1 mM MgCl2, 1.8 mM CaCl2, 5 mM HEPES, 2.5 mM sodium pyruvate, and 50 mg/mL gentamycin, pH 7.4) at 18 °C until the experiment was performed. Human 5-HT3A receptor mRNA was injected into oocytes using a nanoinjector (Drummond Scientific, Broomall, PA, USA) with a mineral-filled 10 μL microdispenser (VWR, Piscataway, NJ, USA).
To confirm the KAE activity on the human 5-HT3A receptor, a two-electrode voltage clamp (OC-725C; Warner Instruments, Hamden, CT, USA) with a Digitata 1550A was used. For the experiment, induced-inward current was converted to digital data with pClamp 10 software (Axon Instruments, Union City, CA, USA). All experiments were performed at room temperature using an oocyte clamp equipped with Digidata. The membrane holding potential was −80 mV.
The voltage relationship experiment for confirming the relationship between induce-inward current and voltage, the voltage was varied from −80 mV to +60 mV using a ramp protocol. Each microelectrode was filled with 3 M KCl having a resistance of 0.2 MΩ. Serotonin and KAE applied in the experiment were diluted in ND96 bath solution (96 mM NaCl, 2 mM KCl, 1 mM MgCl2, 1.8 mM CaCl2, and 5 mM HEPES, pH 7.5) to specified concentration. The rate of application of the reagent was 2 mL per minute. All recording data were analyzed using Clampfit 9.0 (Molecular Devices, San Jose, CA, USA).
All presented experiments were performed at least three times for scientific verification. Data are presented as mean ± S.E.M (standard error of the mean). Induced-inward current data were analyzed with SigmaPlot 10.0 software (Systat Software, Inc., San Jose, CA, USA). To prepare a sigmoid prediction curve for induced peak data, Hill equation reflecting the binding to ligand and macromolecule was obtained with an OriginPro 9.0 software (Origin, MA, USA). The formula used was y = Vmin + (Vmax − Vmin) × [x]^n/([IC50]^n + [x]^n), where Vmin was the minimum current, Vmax was the maximum current, IC50 was the maximum half inhibitory effect percentage of inhibitory activation by KAE, [x] was the concentration of serotonin or KAE, and n was the interaction-coefficient. Statistical significance was considered when p-value was less than or equal to 0.05 (p ≤ 0.05).

Assay [2] concerns the target T2, human 5-HT3A receptor I210A mutant (Homo sapiens, UniProt P46098).
T2 sequence (P46098 24-478): T1 sequence (P46098 24-478)
Nature of the assay: Two-electrode voltage clamp, I5-HT inhibition, I210A mutant. The settings on record: −80 mV. The procedure: (§1) Human 5-HT3A receptor cDNA was linearized using restriction enzyme XhoI. In vitro transcription was performed using an mMESSAGE mMACHINE T7 Transcription Kit (Thermo Fisher Scientific, Waltham, MA, USA). The final mRNA product was dissolved in 1X Diethyl Pyrocarbonate (RNase-free water) at a final concentration of 1 μg/μL and kept in a deep-freezer at −80 °C until used.
Xenopus oocytes were used in this study as cells for expression of human 5-HT3A receptor. All female frogs used in this experiment were obtained from the Korean Xenopus Resource Center for Research (KXRCR000001). Xenopus management followed the guideline of Chonnam National University institution guidelines (CNU IACUC-YB-2016-07, July 2016). Xenopus oocytes were extracted during ice incubation state and isolated as single oocytes using collagenase II (2 mg/mL) in OR2 buffer (82.5 mM NaCl, 2 mM KCl, 1 mM MgCl2, 5 mM HEPES, pH 7.4). […]
(§2) The voltage relationship experiment for confirming the relationship between induce-inward current and voltage, the voltage was varied from −80 mV to +60 mV using a ramp protocol. […] All recording data were analyzed using Clampfit 9.0 (Molecular Devices, San Jose, CA, USA). […]
(§3) All presented experiments were performed at least three times for scientific verification. […] Induced-inward current data were analyzed with SigmaPlot 10.0 software (Systat Software, Inc., San Jose, CA, USA). […]

Assay [3] has as its target T3, human 5-HT3A receptor I180A mutant (Homo sapiens, UniProt P46098, V202A).
T3 sequence (P46098 24-478 V202A): T1 sequence (P46098 24-478) with V179A
Briefly: Two-electrode voltage clamp, I5-HT inhibition, I180A mutant. The method, then:
as §1
Xenopus oocytes were used in this study as cells for expression of human 5-HT3A receptor. All female frogs used in this experiment were obtained from the Korean Xenopus Resource Center for Research (KXRCR000001). Xenopus management followed the guideline of Chonnam National University institution guidelines (CNU IACUC-YB-2016-07, July 2016). Xenopus oocytes were extracted during ice incubation state and isolated as single oocytes using collagenase II (2 mg/mL) in OR2 buffer (82.5 mM NaCl, 2 mM KCl, 1 mM MgCl2, 5 mM HEPES, pH 7.4). Isolated oocytes were incubated with ND96 incubation buffer (96 mM NaCl, 2 mM KCl, 1 mM MgCl2, 1.8 mM CaCl2, 5 mM HEPES, 2.5 mM sodium pyruvate, and […], pH 7.4) at 18 °C until the experiment was performed. Human 5-HT3A receptor mRNA was injected into oocytes using a nanoinjector (Drummond Scientific, Broomall, PA, USA) with a mineral-filled 10 μL microdispenser (VWR, Piscataway, NJ, USA).
To confirm the KAE activity on the human 5-HT3A receptor, a two-electrode voltage clamp (OC-725C; Warner Instruments, Hamden, CT, USA) with a Digitata 1550A was used. For the experiment, induced-inward current was converted to digital data with pClamp 10 software (Axon Instruments, Union City, CA, USA). […]
as §2, §3

The mark [4] stands for this setting: read-out: Emax of serotonin concentration-response.

Substitutions are numbered along the chain they refer to.

Take `O=c1c(O)c(-c2ccc(O)cc2)oc2cc(O)cc(O)c12` [KAE, kaempferol]: in assay [1], the “Maximum-inhibitory percentage (Imax)” value came out at 79.3 ± 4.5%, the Vmax was 79.3 ± 4.6% and the “efficacy of antagonist against I5-HT(100uM) of 5-HT3A” value is 79.3 ± 4.6%. Moreover, the Hill coefficient in assay [1] (Hill equation fit, Figure 1D, serotonin 100 μM, −80 mV) was 0.9 ± 0.1. In assay [1] (KAE fixed, serotonin 1–300 μM, Figure 2B), the “competitive or non-competitive manner of inhibition” value is given as “non-competitive manner”. Besides, in assay [1] (Wild type, −80 mV, Table 1), the half-inhibitory concentration (IC50) was 23.4 ± 8.3 µM and the “n (Hill coefficient)” value is 1.2 ± 0.3. Also, in assay [1] (setting [4]), the Emax at 10 µM amounted to 79.3 ± 4.8% and the Emax at 100 µM was determined as 37.7 ± 1.2%. In addition, in assay [1] (serotonin and KAE 100 μM, Figure 1B), the “inhibitory manner (reversibility)” value is listed as “reversible inhibitory manner”. Also, in assay [1] (voltage ramp −80 to +60 mV, KAE 10 and 100 μM, serotonin 100 μM), the “voltage dependence of inhibition” value was “voltage-independent manner”. Further, in assay [2], the 50% inhibitory concentration (IC50) was 35.4 ± 9.7 µM and the “n (Hill coefficient)” value is 1.8 ± 0.5. The half-inhibitory concentration (IC50) in assay [3] was 45.5 ± 12.9 µM. The “n (Hill coefficient)” value in assay [3] (I180A, −80 mV) amounted to 1.8 ± 0.6. Besides, the Emax in assay [3] (I180A, −80 mV, read-out: Vmax) came to 89.5 ± 12.1%.

By Hill coefficient is commonly meant the slope factor of the fitted curve. As usually defined, the IC50 is the concentration that gives 50% inhibition.

The values are drawn from article PMC8745345, “Hydroxy Pentacyclic Triterpene Acid, Kaempferol, Inhibits the Human 5-Hydroxytryptamine Type 3A Receptor Activity” (International Journal of Molecular Sciences, 2022).
